Results taken from ChEMBL document CHEMBL3885881, “DrugMatrix”.

Species: Rattus norvegicus
Assay: DrugMatrix - Regimen: Daily Repeat
Type: toxicity, organism-based, Sprague-Dawley
Parameters: regimen Daily Repeat, gender Male, age 6-8 weeks
Settings: in vivo, po, route oral GAVAGE, vehicle 100 % WATER; for ABSOLUTE BASOPHIL / ABSOLUTE EOSINOPHIL / ABSOLUTE LYMPHOCYTE / ABSOLUTE MONOCYTE / ABSOLUTE SEGMENTED NEUTROPHIL / BASOPHIL / EOSINOPHIL / ERYTHROCYTE COUNT / HEMATOCRIT / HEMOGLOBIN / LEUKOCYTE COUNT / LYMPHOCYTE / MEAN CORPUSCULAR HEMOGLOBIN / MEAN CORPUSCULAR HEMOGLOBIN CONCENTRATION / MEAN CORPUSCULAR VOLUME / MONOCYTE / NEUTROPHIL / NUCLEATED RED BLOOD CELLS / PLATELET COUNT: tissue Blood; for ALANINE AMINOTRANSFERASE / ALBUMIN / ALKALINE PHOSPHATASE / ASPARTATE AMINOTRANSFERASE / BLOOD UREA NITROGEN / CARBON DIOXIDE / CHLORIDE / CHOLESTEROL / CREATINE PHOSPHOKINASE / CREATININE / GLUCOSE / LACTATE DEHYDROGENASE / LIPASE / PHOSPHORUS / POTASSIUM / SODIUM / TOTAL BILIRUBIN / TOTAL PROTEIN / URIC ACID: tissue Plasma
[1] = 2 mg/kg, 120 h, dose level Low, time 5 day
[2] = 184 mg/kg, 72 h, dose level High, time 3 day
[3] = 184 mg/kg, 120 h, dose level High, time 5 day

For `C[C@]12C=CC(=O)C=C1CC[C@@H]1[C@@H]2[C@@H](O)C[C@@]2(C)[C@H]1CC[C@]2(O)C(=O)CO` [PREDNISOLONE], the “ABSOLUTE BASOPHIL” value [1] was 0 CELLS/uL, the “ABSOLUTE EOSINOPHIL” value [1] was 0 CELLS/uL and the “ABSOLUTE LYMPHOCYTE” value [1] was 11293 CELLS/uL. For the same molecule, the “ABSOLUTE MONOCYTE” value [1] was 44.33 CELLS/uL, the “ABSOLUTE SEGMENTED NEUTROPHIL” value [1] was 929.33 CELLS/uL and the BASOPHIL [1] was 0%. For the same molecule, the EOSINOPHIL [1] was 0%, the “ERYTHROCYTE COUNT” value [1] was 6.06 x10E6/uL and the HEMATOCRIT [1] was 36.67%. For the same molecule, the HEMOGLOBIN [1] was 14.5 G/DL, the “LEUKOCYTE COUNT” value [1] was 12.27 x10E3/uL and the LYMPHOCYTE [1] was 92.33%. The “MEAN CORPUSCULAR HEMOGLOBIN” value [1] was 23.9 pg, the “MEAN CORPUSCULAR HEMOGLOBIN CONCENTRATION” value [1] was 39.53 G/DL and the “MEAN CORPUSCULAR VOLUME” value [1] was 60.53 fL. For the same molecule, the MONOCYTE [1] was 0.33%, the NEUTROPHIL [1] was 7.33% and the “NUCLEATED RED BLOOD CELLS” value [1] was 0.33 /100WBC. The “PLATELET COUNT” value [1] was 1186.33 x10E3/uL, the “ALANINE AMINOTRANSFERASE” value [1] was 41.33 u/L and the ALBUMIN [1] was 4.37 G/DL. For the same molecule, the “ALKALINE PHOSPHATASE” value [1] was 333.67 u/L, the “ASPARTATE AMINOTRANSFERASE” value [1] was 88.67 u/L and the “BLOOD UREA NITROGEN” value [1] was 16.33 mg/dL. The “CARBON DIOXIDE” value [1] was 26.67 mmol/L, the CHLORIDE [1] was 101 MEQ/L and the CHOLESTEROL [1] was 55.33 mg/dL. For the same molecule, the “CREATINE PHOSPHOKINASE” value [1] was 433 u/L, the CREATININE [1] was 0.17 mg/dL and the GLUCOSE [1] was 143.33 mg/dL. For the same molecule, the “LACTATE DEHYDROGENASE” value [1] was 390.33 u/L, the LIPASE [1] was 9 u/L and the PHOSPHORUS [1] was 10.87 mg/dL. The POTASSIUM [1] was 5.88 MEQ/L, the SODIUM [1] was 142.2 MEQ/L and the “TOTAL BILIRUBIN” value [1] was 0.23 mg/dL. The “TOTAL PROTEIN” value [1] was 6.1 G/DL, the “URIC ACID” value [1] was 1.87 mg/dL and the “ABSOLUTE BASOPHIL” value [2] was 0 CELLS/uL. The “ABSOLUTE EOSINOPHIL” value [2] was 0 CELLS/uL, the “ABSOLUTE LYMPHOCYTE” value [2] was 4216.33 CELLS/uL and the “ABSOLUTE MONOCYTE” value [2] was 85 CELLS/uL. The “ABSOLUTE SEGMENTED NEUTROPHIL” value [2] was 2332 CELLS/uL, the BASOPHIL [2] was 0% and the EOSINOPHIL [2] was 0%. The “ERYTHROCYTE COUNT” value [2] was 6.23 x10E6/uL, the HEMATOCRIT [2] was 38.3% and the HEMOGLOBIN [2] was 14.57 G/DL. For the same molecule, the “LEUKOCYTE COUNT” value [2] was 6.63 x10E3/uL, the LYMPHOCYTE [2] was 63.67% and the “MEAN CORPUSCULAR HEMOGLOBIN” value [2] was 23.4 pg. For the same molecule, the “MEAN CORPUSCULAR HEMOGLOBIN CONCENTRATION” value [2] was 38.03 G/DL, the “MEAN CORPUSCULAR VOLUME” value [2] was 61.47 fL and the MONOCYTE [2] was 1.33%. For the same molecule, the NEUTROPHIL [2] was 35%, the “NUCLEATED RED BLOOD CELLS” value [2] was 0 /100WBC and the “PLATELET COUNT” value [2] was 1200 x10E3/uL. The “ALANINE AMINOTRANSFERASE” value [2] was 57.33 u/L, the ALBUMIN [2] was 5.07 G/DL and the “ALKALINE PHOSPHATASE” value [2] was 269.33 u/L. The “ASPARTATE AMINOTRANSFERASE” value [2] was 67 u/L, the “BLOOD UREA NITROGEN” value [2] was 18.67 mg/dL and the “CARBON DIOXIDE” value [2] was 25 mmol/L. For the same molecule, the CHLORIDE [2] was 99 MEQ/L, the CHOLESTEROL [2] was 84.33 mg/dL and the “CREATINE PHOSPHOKINASE” value [2] was 258 u/L. The CREATININE [2] was 0.22 mg/dL, the GLUCOSE [2] was 170 mg/dL and the “LACTATE DEHYDROGENASE” value [2] was 120.33 u/L. For the same molecule, the LIPASE [2] was 12.33 u/L, the PHOSPHORUS [2] was 11.57 mg/dL and the POTASSIUM [2] was 5.92 MEQ/L. The SODIUM [2] was 142.73 MEQ/L, the “TOTAL BILIRUBIN” value [2] was 0.17 mg/dL and the “TOTAL PROTEIN” value [2] was 7.07 G/DL. The “URIC ACID” value [2] was 2.57 mg/dL, the “ABSOLUTE BASOPHIL” value [3] was 0 CELLS/uL and the “ABSOLUTE EOSINOPHIL” value [3] was 20.33 CELLS/uL. For the same molecule, the “ABSOLUTE LYMPHOCYTE” value [3] was 3939 CELLS/uL, the “ABSOLUTE MONOCYTE” value [3] was 40.67 CELLS/uL and the “ABSOLUTE SEGMENTED NEUTROPHIL” value [3] was 2333.33 CELLS/uL. The BASOPHIL [3] was 0%, the EOSINOPHIL [3] was 0.33% and the “ERYTHROCYTE COUNT” value [3] was 6.44 x10E6/uL. The HEMATOCRIT [3] was 38.23%, the HEMOGLOBIN [3] was 15.03 G/DL and the “LEUKOCYTE COUNT” value [3] was 6.33 x10E3/uL. The LYMPHOCYTE [3] was 61.33%, the “MEAN CORPUSCULAR HEMOGLOBIN” value [3] was 23.4 pg and the “MEAN CORPUSCULAR HEMOGLOBIN CONCENTRATION” value [3] was 39.37 G/DL. The “MEAN CORPUSCULAR VOLUME” value [3] was 59.4 fL, the MONOCYTE [3] was 0.67% and the NEUTROPHIL [3] was 37.67%. The “NUCLEATED RED BLOOD CELLS” value [3] was 0.33 /100WBC, the “PLATELET COUNT” value [3] was 1142.33 x10E3/uL and the “ALANINE AMINOTRANSFERASE” value [3] was 78.33 u/L. For the same molecule, the ALBUMIN [3] was 5.07 G/DL, the “ALKALINE PHOSPHATASE” value [3] was 230.33 u/L and the “ASPARTATE AMINOTRANSFERASE” value [3] was 90.33 u/L. For the same molecule, the “BLOOD UREA NITROGEN” value [3] was 18.67 mg/dL, the “CARBON DIOXIDE” value [3] was 23.33 mmol/L and the CHLORIDE [3] was 100 MEQ/L. For the same molecule, the CHOLESTEROL [3] was 63.67 mg/dL, the “CREATINE PHOSPHOKINASE” value [3] was 788.33 u/L and the CREATININE [3] was 0.21 mg/dL. The GLUCOSE [3] was 184.67 mg/dL, the “LACTATE DEHYDROGENASE” value [3] was 177.67 u/L and the LIPASE [3] was 11.67 u/L. It also gave a PHOSPHORUS [3] of 10.9 mg/dL, a POTASSIUM [3] of 5.41 MEQ/L and an SODIUM [3] of 145.27 MEQ/L. For the same molecule, the “TOTAL BILIRUBIN” value [3] was 0.23 mg/dL, the “TOTAL PROTEIN” value [3] was 6.93 G/DL and the “URIC ACID” value [3] was 1.27 mg/dL.
